In patent US10316017B2, “COT modulators and methods of use thereof” (Gilead Sciences, Inc., priority 2015, dated 2019):
Like-named read-outs stand apart in the source and are kept apart here.

How the values were obtained:
[1] = target: T1, human Cot catalytic domain (30-397 amino acids) (Homo sapiens, UniProt P41279); experiment: High Throughput Cot Biochemical Assay (KinEASE TR-FRET); settings: 400 μM ATP, read-out: IC50 HTRF
T1 construct: Purified recombinant human Cot catalytic domain (30-397 amino acids) was purchased from Cama Biosciences; purchased Cama Biosciences (so in the source)
T1 sequence (P41279 30-397): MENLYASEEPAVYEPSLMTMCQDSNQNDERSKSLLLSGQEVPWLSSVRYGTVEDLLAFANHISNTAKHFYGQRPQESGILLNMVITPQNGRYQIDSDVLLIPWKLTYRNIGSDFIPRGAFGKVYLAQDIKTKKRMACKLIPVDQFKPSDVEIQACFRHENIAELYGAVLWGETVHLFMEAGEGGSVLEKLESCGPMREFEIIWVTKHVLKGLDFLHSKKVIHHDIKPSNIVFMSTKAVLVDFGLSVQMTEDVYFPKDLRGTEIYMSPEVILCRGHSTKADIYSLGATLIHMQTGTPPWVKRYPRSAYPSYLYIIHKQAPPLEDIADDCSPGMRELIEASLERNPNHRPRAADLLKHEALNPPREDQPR
In short: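 TR-FRET (KinEASE) read-out: Eu-labelled phospho-specific antibody binds XL665-tagged STK3 peptide (1 μM) phosphorylated by 5 nM human Cot kinase domain (residues 30-397). Reaction at 400 μM ATP, pH 7.0 MOPS buffer with 10 mM MgOAc, 1 mM DTT and 0.1% DMSO.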

[2] = system: TNFα production in LPS-stimulated human monocytes; experiment: Cot Monocyte TNFα Cell Based Assay; settings: read-out: EC50 TNF
Description: Example 60: Cot Monocyte TNFα Cell Based Assay
The cell suspension was then plated at a density of 5,000 cells/well onto black 384 well Greiner clear bottom plates. Plates were pre-spotted with test compounds and serially diluted in DMSO where 200 nL/well were delivered using the Echo 550 acoustic liquid dispenser (Labcyte®) for a final DMSO concentration of 0.5%. Plated cells were treated with compound for 1 hour at 37° C. Cells were then stimulated with 50 pg/ml of LPS (Sigma) excluding outside columns of plate used for unstimulated cell control wells. Cells were incubated for an additional 4 hours at 37° C. Cells were then spun out of the media and 5 ul of sample were taken and analyzed for total TNFα content using the TR-FRET Human TNFα detection system (CisBio). This system utilizes two labeled antibodies (cryptate and XL665) that bind to two different epitopes of the TNFα molecule and produce FRET signal proportional to the concentration of TNFα in the sample. Detection antibodies are mixed 50:50 and 5 μL were dispensed into each well. Plates were covered with clear seals and incubated at room temp overnight. […] Percent of control was calculated as follows: % Control=100×(RatioSample−Ratio0% stimulation)/(Ratio100% Stimulation−Ratio0% Stimulation) where unstimulated cells (0% stimulation) were the negative control and stimulated cells (100% stimulation) were used as the positive control.

[3] = LPS-stimulated human monocytes, TNFα TR-FRET
[4] = Cot KinEASE TR-FRET (HTRF) biochemical assay
[5] = Homo sapiens, Monocyte, TNFα in LPS-stimulated human monocytes
[6] = Homo sapiens, Monocyte, LPS-stimulated human monocytes, TNFα TR-FRET

8-chloro-4-((4-cyna-1- phenylbutyl)amino)-6-(((1- cyclopropyl-1H-1,2,3-triazol-4- yl)(4-fluorophenyl)methyl- d)amino)quinoline-3-carbonitrile [Example 981]
IC50 ([1]; Cot KinEASE TR-FRET): 0.022 µM
EC50 [2, 3]: 0.318 µM

[2H]C(Nc1cc(Cl)c2ncc(C#N)c(NC3[C@H]4CCC[C@@H]34)c2c1)(c1ccc(F)cc1)c1cn(C2CC2)nn1 (stereo in doubt) [Example 117, 4-(((1R,5S)-bicyclo[3.1.0]hexan-6-yl)amino)-8-chloro-6-(((S)-(1-cyclopropyl-1H-1,2,3-triazol-4-yl) (4-fluorophenyl)methyl-d)amino)quinoline-3-carbonitrile]
IC50 [1, 4]: 0.016 µM
EC50 [2, 5]: 0.377 µM

[2H]C(Nc1cc(Cl)c2ncc(C#N)c(N[C@@H]3CCCC[C@@H]3N)c2c1)(c1ccc(F)cc1)c1cn(C2CC2)nn1 (stereo in doubt) [Example 228, 4-(((1R,2S)-2-aminocyclohexyl)amino)-8-chloro-6-(((S)-(1-cyclopropyl-1H-1,2,3-triazol-4-yl)(4-fluorophenyl)methyl-d)amino)quinoline-3-carbonitrile]
IC50 [1, 4]: 0.807 µM
EC50 [2, 5]: > 10 µM

[2H]C(Nc1cc(Cl)c2ncc(C#N)c(N[C@H]3CCCC[C@H]3NC(=O)OC(C)(C)C)c2c1)(c1ccc(F)cc1)c1cn(C2CC2)nn1 (stereo in doubt) [Example 231, tert-butyl ((1R,2S)-2-((8-chloro-3-cyano-6-(((S)-(1-cyclopropyl-1H-1,2,3-triazol-4-yl)(4-fluorophenyl)methyl-d)amino)quinolin-4-yl)amino)cyclohexyl)carbamate]
IC50 [1, 4]: > 10 µM
EC50 [2, 5]: > 10 µM

[2H]C(Nc1cc(Cl)c2ncc(C#N)c(NC3C4CCCC43)c2c1)(c1ccc(F)cc1)c1cn(C2CC2)nn1 (stereo in doubt) [Example 242, 4-(bicyclo[3.1.0]hexan-6-ylamino)-8-chloro-6-(((S)-(1-cyclopropyl-1H-1,2,3-triazol-4-yl)(4-fluorophenyl)methyl-d)amino)quinoline-3-carbonitrile]
IC50 [1, 4]: 0.008 µM
EC50 [2, 5]: 0.27 µM

[2H]C(Nc1cc(Cl)c2ncc(C#N)c(NC3CCCC4CC43)c2c1)(c1ccc(F)cc1)c1cn(C2CC2)nn1 (stereo in doubt) [Example 250, 4-(bicyclo[4.1.0]heptan-2-ylamino)-8-chloro-6-(((S)-(1-cyclopropyl-1H-1,2,3-triazol-4-yl)(4-fluorophenyl)methyl-d)amino)quinoline-3-carbonitrile]
IC50 [1, 4]: 0.147 µM
EC50 [2, 5]: 0.993 µM

[2H]C(Nc1cc(Cl)c2ncc(C#N)c(NC3CCC4CC43)c2c1)(c1ccc(F)cc1)c1cn(C2CC2)nn1 (stereo in doubt) [Example 251, 4-(bicyclo[3.1.0]hexan-2-ylamino)-8-chloro-6-(((S)-(1-cyclopropyl-1H-1,2,3-triazol-4-yl)(4-fluorophenyl)methyl-d)amino)quinoline-3-carbonitrile]
IC50 [1, 4]: 0.105 µM
EC50 [2, 5]: 1.28 µM

[2H]C(Nc1cc(Cl)c2ncc(C#N)c(NC3CC4CCCC(C4)C3)c2c1)(c1ccc(F)cc1)c1cn(C2CC2)nn1 (stereo in doubt) [Example 278, 4-(((1R,5S)-bicyclo[3.3.1]nonan-3-yl)amino)-8-chloro-6-(((S)-(1-cyclopropyl-1H-1,2,3-triazol-4-yl)(4-fluorophenyl)methyl-d)amino)quinoline-3-carbonitrile]
IC50 [1, 4]: 0.222 µM
EC50 [2, 5]: > 10 µM

[2H]C(Nc1cc(F)c2ncc(C#N)c(NC(CC#N)c3ccccc3)c2c1)(c1ccc(F)cc1)c1cn(C2CC2)nn1 (stereo in doubt) [Example 286, 4-((2-cyano-1-phenylethyl)amino)-6-(((1-cyclopropyl-1H-1,2,3-triazol-4-yl)(4-fluorophenyl)methyl-d)amino)-8-fluoroquinoline-3-carbonitrile]
IC50 [1, 4]: 0.007 µM
EC50 [2, 5]: 0.127 µM

[2H]C(Nc1cc(Cl)c2ncc(C#N)c(N[C@H]3CCCCC3(C)C)c2c1)(c1ccc(F)cc1)c1cn(C2CC2)nn1 (stereo in doubt) [Example 319, 8-chloro-6-(((S)-(1-cyclopropyl-1H-1,2,3-triazol-4-yl)(4-fluorophenyl)methyl-d)amino)-4-(((S)-2,2-dimethylcyclohexyl)amino) quinoline-3-carbonitrile]
IC50 [1, 4]: 0.372 µM
EC50 [2, 5]: 4.48 µM

[2H]C(Nc1cc(Cl)c2ncc(C#N)c(NC3C(C)CCCC3C)c2c1)(c1ccc(F)cc1)c1cn(C2CC2)nn1 (stereo in doubt) [Example 320, 8-chloro-6-(((S)(1-cyclopropyl-1H-1,2,3-triazol-4-yl)(4-fluorophenyl)methyl-d)amino)-4-((2,6-dimethylcyclohexyl)amino) quinoline-3-carbonitrile]
IC50 [1, 4]: 1.15 µM
EC50 [2, 5]: 6.43 µM

[2H][C@](Nc1cc(Cl)c2ncc(C#N)c(NCC(C)(C)C)c2c1)(c1ccc(F)cc1)c1cn(C2CC2)nn1 [Compound 1]
IC50 [1, 4]: 0.006 µM
EC50 [2, 5]: 0.143 µM

[2H][C@](Nc1cc(Cl)c2ncc(C#N)c(N[C@H](CC)c3ccccc3)c2c1)(c1ccc(F)cc1)c1cn(C2CC2)nn1 [Compound 2]
IC50 [1, 4]: 0.006 µM
EC50 [2, 5]: 0.151 µM

Cc1ccccc1[C@H](Nc1cc(Cl)c2ncc(C#N)c(NCC(C)(C)C)c2c1)c1cn(C2CC2)nn1 [Compound 3]
IC50 [1, 4]: 0.007 µM
EC50 [2, 5]: 0.246 µM

[2H]C(Nc1cc(Cl)c2ncc(C#N)c(NCC(C)(C)C)c2c1)(c1cn(CC(N)=O)nn1)c1ccccc1Cl (stereo not drawn) [Compound 4]
IC50 [1, 4]: 0.006 µM
EC50 [2, 5]: 0.28 µM

CCN1CCC(n2cc([C@@H](Nc3cc(Cl)c4ncc(C#N)c(Nc5ccc(F)c(Cl)c5)c4c3)c3ccc(F)cc3)nn2)CC1 [Compound 5]
IC50 [1, 4]: 0.002 µM
EC50 [2, 5]: 0.153 µM

N#Cc1cnc2c(Cl)cc(NC(c3ccc(F)cc3)c3ccon3)cc2c1Nc1ccc(F)c(Cl)c1 (stereo not drawn) [Compound 7]
IC50 [1, 4]: 0.187 µM
EC50 [2, 5]: 1.52 µM

Cn1cc(C(Nc2cc(Br)c3ncc(C#N)c(Nc4ccc(F)c(Cl)c4)c3c2)c2ccc(F)cc2)nn1 (stereo not drawn) [Compound 8, 8-bromo-4-((3-chloro-4-fluorophenyl)amino)-6-(((4-fluorophenyl) (1-methyl-1H-1,2,3-triazol-4-yl)methyl)amino) quinoline-3-carbonitrile]
IC50 [1, 4]: 0.033 µM
EC50 [2, 5]: 0.571 µM

CC(=O)N(C)c1cccc([C@H](Nc2cc(C#N)c3ncc(C#N)c(NCC(C)(C)C)c3c2)c2cn(C3CC3)nn2)c1 [Compound 9]
IC50 [1, 4]: 0.002 µM
EC50 [2, 5]: 0.172 µM

CC(C)(C)N1CCC(n2cc([C@@H](Nc3cc(Cl)c4ncc(C#N)c(Nc5cnc(F)c(Cl)c5)c4c3)c3ccccc3)nn2)CC1 [Compound 10]
IC50 [1, 4]: 0.004 µM
EC50 [2, 5]: 0.071 µM

[2H][C@](Nc1cc(C(C)=O)c2ncc(C#N)c(NCC(C)(C)C)c2c1)(c1ccc(F)cc1)c1cn(C2CC2)nn1 [Compound 11]
IC50 [1, 4]: 0.005 µM
EC50 [2, 5]: 0.098 µM

[2H][C@](Nc1cc(-c2cncnc2)c2ncc(C#N)c(NCC(C)(C)C)c2c1)(c1ccc(F)cc1)c1cn(C2CC2)nn1 [Compound 12]
IC50 [1, 4]: 0.02 µM
EC50 [2, 5]: 0.205 µM

[2H][C@](Nc1cc(Br)c2ncc(C#N)c(NCC(C)(C)C)c2c1)(c1ccc(F)cc1)c1nnn(C2CC2)c1SC [Compound 13, (S)-8-bromo-6-(((1-cyclopropyl-5-(methylthio)-1H-1,2,3-triazol-4-yl)(4-fluorophenyl)methyl-d)amino)-4-(neopentylamino) quinoline-3-carbonitrile]
IC50 [1, 4]: 0.071 µM
EC50 [2, 5]: 0.221 µM

[2H][C@@](Nc1cc(C(C)=O)c2ncc(C#N)c(NCC(C)(C)C)c2c1)(c1cn(C2CC2)nn1)c1ccccc1Cl [Compound 14]
IC50 [1, 4]: 0.013 µM
EC50 [2, 5]: 0.298 µM

CC(C)(C)CNc1c(C#N)cnc2c(Cl)cc(NC(c3cn(C4(CO)CC4)nn3)c3ccccc3Cl)cc12 (stereo not drawn) [Example 964, 8-chloro-6-(((2-chlorophenyl) (1-(1-(hydroxymethyl)cyclopropyl)-1H-1,2,3-triazo1-4-yl)methyl-d)amino)-4-(neopentylamino)quinoline-3-carbonitrile]
EC50 [2, 3]: 0.254 µM

CC(C)(C)CNc1c(C#N)cnc2c(Cl)cc(N[C@@H](c3ccccc3)c3cn(C4(C(F)F)CC4)nn3)cc12 [Example 1058, (S)-8-chloro-6-(((1-(1-(difluoromethyl)cyclopropyl)-1H-1,2,3-triazo1-4-yl)(phenyl)methyl)amino)-4-(neopentylamino)quinoline-3-carbonitrile]
EC50 [2, 6]: 0.314 µM

Cc1cc(C#N)ccc1[C@H](Nc1cc(Cl)c2ncc(C#N)c(NCC(C)(C)C)c2c1)c1cn(C2(C(F)(F)F)CC2)nn1 [Example 1099, (S)-8-chloro-6-(((4-cyano-2-methylphenyl)(1-(1-(trifluoromethyl)cyclopropyl)-1H-1,2,3-triazol-4-yl)methyl)amino)-4-(neopentylamino)quinoline-3-carbonitrile]
EC50 [2, 6]: 0.188 µM
